Experimental data as given in patent publication US6384051B1, “Method of treating or inhibiting colonic polyps” (American Cyanamid Company, priority 2000, dated 2002).

Assays:
[1] = test system: Min mouse (C57BL/6J-Min/+); test: in vivo test procedure emulating FAP: Min mouse (C57BL/6J-Min/+), compound blended with AIN-93G chow for 60 days, intestinal polyps counted on day 61
Description: The polyps that develop in Min mice express EGFR and have activated COX-2.
On day 61, the animals were euthanized with CO2 inhalation, and the entire intestinal tract from stomach to anus was removed. The intestinal tract was injected with Bouins fixative, and allowed to fix for several days. The intestinal tracts were then opened and the number of polyps counted.

[2] = test system: min mouse; details: background statement on NSAID's; cited from earlier work

Row | SMILES | reducing polyp numbers in mice [1] | intestinal polyp formulation in min mice (NSAID's) [2]
1 | CCOc1cc2ncc(C#N)c(Nc3ccc(F)c(Cl)c3)c2cc1NC(=O)C=CCN(C)C [Example 399, 4-Dimethylamino-but-2-enoic acid [4-(3-chloro-4-fluoro-phenylamino)-3-cyano-7-ethoxy-quinolin-6-yl]-amide] | effective in significantly reducing polyp numbers | 
2 | CCc1cccc2c3c([nH]c12)C(CC)(CC(=O)O)OCC3 (stereo not drawn) [etodoloc] |  | can reduce (but not eradicate) intestinal polyp formulation
3 | CC1=C(CC(=O)O)c2cc(F)ccc2/C1=C\c1ccc([S+](C)[O-])cc1 (stereo not drawn) [sulindac] |  | can reduce (but not eradicate) intestinal polyp formulation
